In patent US7915256B2, “Triazolopyrazine compounds useful for the treatment of degenerative and inflammatory diseases” (Galapagos NV, priority 2006, dated 2011):
pEC50, pIC50: −log10 of the molar value. Like-named read-outs stand apart in the source and are kept apart here.

What was measured:
MAPKAPK5 = target: T1, MAPKAPK5 (Homo sapiens, UniProt Q8IW41); assay: MAPKAP-K5 assay (FlashPlate, 33P-ATP)
T1 sequence (Q8IW41 1-473): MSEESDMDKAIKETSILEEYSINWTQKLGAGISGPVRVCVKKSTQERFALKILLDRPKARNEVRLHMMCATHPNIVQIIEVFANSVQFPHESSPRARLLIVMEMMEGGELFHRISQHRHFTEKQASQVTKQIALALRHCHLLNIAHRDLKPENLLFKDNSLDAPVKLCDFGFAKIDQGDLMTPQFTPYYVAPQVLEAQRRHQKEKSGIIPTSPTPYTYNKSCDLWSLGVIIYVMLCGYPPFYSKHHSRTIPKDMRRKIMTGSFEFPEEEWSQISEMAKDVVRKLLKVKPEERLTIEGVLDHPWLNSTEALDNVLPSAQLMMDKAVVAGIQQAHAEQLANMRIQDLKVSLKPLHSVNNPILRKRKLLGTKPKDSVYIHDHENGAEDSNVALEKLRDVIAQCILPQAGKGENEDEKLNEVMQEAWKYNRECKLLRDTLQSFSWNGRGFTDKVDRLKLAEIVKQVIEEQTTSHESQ
Protocol: MAPKAP-K5 reactions are performed in FlashPlate format using 0.1 or 0.2 μCi 33P-ATP; 0.6 μM ATP; 1 mU MAPKAP-K5; 3 μM MAPKAP-K5 peptide substrate, incubated at room temperature for 30 minutes.
The MAPKAP-K5 kinase reaction is performed in a 384 well polypropylene plate (Matrix Technologies) and then transferred to a streptavidin-coated 384 well flashplate (Perkin-Elmer).
To wells containing 2 μL test compound or standard inhibitor, 13 μL Enzyme mix or diluent are added using a Hydra (Robbins Scientific).
Reactions are started by addition of 10 μL of [2,5×] substrate cocktail using a Multidrop (Thermo-Labsystems), to give final concentrations in the assay of:
Plates are incubated at room temperature for 30 minutes.
Reactions are terminated by the addition of 25 μL EDTA (50 mM) to each well using a Micro-fill (Biotek).
Reactions are transferred to a streptavidin-coated flashplate using a Zymark robotic system. Plates are incubated for 60 minutes at room temperature.
All wells are washed 3 times with 100 μl phosphate buffered saline using a Tecan plate washer.
Radioactivity is determined by scintillation counting of the flashplate (empty wells) on a Packard TopCount.
Enzyme Mix: • Enzyme • 50 mM Tris Hcl (pH 7.5) • 0.1 mM EGTA • 2 mM DTT • 1 mg/mL BSA
Reaction Buffer: • 50 mM Tris Hcl (pH 7.5) • 0.1 mM EGTA • 10 mM Magnesium acetate • 2 mM DTT

[1] = tested on: TNFα release by human PBMCs; assay: Cytokine (TNFα) release by LPS stimulated human PBMCs, ELISA; assay type: cell-based; details: ELISA of supernatant
Protocol: For the assay PBMCs are seeded at 2.5E6 cells/mL in 160 μL in 96-well plates (Nunc). Serial dilution of the test compounds are made first in DMSO (Sigma) and then diluted 50-fold in M199 medium (Gibco) containing 1% heat-inactivated FBS. Compounds are further 1/10 diluted in the assay plates to obtain final DMSO concentration of 0.2%. Cells are preincubated with the compounds for 1 hr at 37° C., 5% CO2. Then, cells are stimulated with LPS (Escherichia coli serotype 026:B6, Cat. No. L2654, Sigma) that is added in a volume of 20 μL to a final concentration of 1 μg/mL and cells are further cultured for 24 hr. The plates are centrifuged and the supernatant is collected and stored at −80° C. until analysis of appropriate dilutions in ELISAs.
After 4 hr incubation at RT, blocking buffer is removed and plates are washed once with PBST (1×PBS with 0.05% Tween-20 (Sigma)). Then, 40 μL of sample is transferred to the ELISA plates and plates are incubated at 4° C. […] Readout is performed on the Luminoscan Ascent Luminometer (Labsystems) with an integration time of 100 msec delivering raw data (RLU: relative luminescence units). […] Where compounds are tested at 8 concentrations (1/3 serial dilution), EC50-values can be calculated by curve fitting of the means of the PIN data achieved for a compound at each test concentration.

[2] = tested on: MMP1 expression by activated synovial fibroblasts (RASFs); assay: 'MMP assay': MMP1 ELISA on supernatant of complex trigger activated synovial fibroblasts; assay type: cell-based; details: Homo sapiens, Fibroblast, Table 4, 48 hrs
Protocol: A 384-well format ELISA for measurement of MMP1 is developed. Various primary antibodies are tested, as well as various ELISA protocols. […] The antibody is diluted in buffer 40 (1.21 g Tris base (Sigma), 0.58 g NaCl (Calbiochem) and 5 ml 10% NaN3 (Sigma) in 1 L milliQ water and adjusted to pH 8.5). After overnight incubation at 4° C., plates are washed with PBS (80 g NaCl, 2 g KCl (Sigma), 11.5 g Na2HPO4.7H2O and 2 g KH2PO4 in 10 L milliQ; pH 7.4) and blocked with 100 μL/well Casein buffer (2% Casein (VWR International) in PBS). Next day, casein buffer is removed from ELISA plates and replaced by 50 μL/well EC buffer (4 g casein, 2.13 g Na2HPO4 (Sigma), 2 g bovine albumin (Sigma), 0.69 g NaH2PO4.H2O (Sigma), 0.5 g CHAPS (Roche), 23.3 g NaCl, 4 ml 0.5 M EDTA pH 8 (Invitrogen), 5 ml 10% NaN3 in 1 L milliQ and adjusted to pH 7.0). 0.25 mM DTT (Sigma) is added to the thawed samples plates. After removal of the EC buffer, 20 μL of sample is transferred to the ELISA plates. After overnight incubation at 4° C. plates are washed twice with PBS and once with PBST (PBS with 0.05% Tween-20 (Sigma)) and incubated with 35 μL/well biotinylated anti-MMP1 antibody solution (R&D). This secondary antibody is diluted in buffer C (0.82 g NaH2PO4.H2O, 4.82 g Na2HPO4, 46.6 g NaCl, 20 g bovine albumin and 4 mL 0.5M EDTA pH 8 in 2 L milliQ and adjusted to pH 7.0) at a concentration of 5 μg/mL. After 2 h of incubation at RT, plates are washed as described above and incubated with 50 μL/well streptavidin-HRP conjugate (Biosource). Streptavidin-HRP conjugate is diluted in buffer C at a concentration of 0.25 μg/mL. After 45 min, plates are washed as described above and incubated for 5 min with 50 μL/well BM Chem ELISA Substrate (Roche). Readout is performed on the Luminoscan Ascent Luminometer (Labsystems) with an integration time of 200 msec or with an Envision reader (Perkin Elmer).
SFs are seeded at a density of 3000 cells/well in 96 well plates. 24 hrs after seeding, increasing concentrations of dexamethasone are added to the cells. […]

[3] = Table 1, 0.6 μM ATP, 30 minutes room temperature
[4] = read-out: MAPKAPK5 IC50, Table 1, 0.6 μM ATP, 30 minutes room temperature

NC(=O)c1c(F)cc(-c2cnc(Nc3ccc(N4CCOCC4)cc3)c3ncnn23)cc1F [Compound 14]
MAPKAPK5 IC50 (nM) (MAPKAPK5; [3]): =

Clc1cc(Nc2ncc(-c3cn[nH]c3)n3ncnc23)ccc1N1CCOCC1 [Compound 18]
MAPKAPK5 IC50 (nM) (MAPKAPK5; [3]): =

NC(=O)c1cc(-c2cnc(Nc3ccc(OCCN4CCOCC4)cc3)c3ncnn23)cs1 [Compound 21, 4-(8-(4-(2-Morpholinoethoxy)phenylamino)-[1,2,4]triazolo[1,5-a]pyrazin-5-yl)thiophene-2-carboxamide]
pIC50 (MAPKAPK5; [4]): 6.00 to 6.30

NC(=O)c1ccc(-c2cnc(Nc3ccc(OCCN4CCOCC4)cc3)c3ncnn23)s1 [Compound 22, 5-(8-(4-(2-Morpholinoethoxy)phenylamino)-[1,2,4]triazolo[1,5-a]pyrazin-5-yl)thiophene-2-carboxamide]
pIC50 (MAPKAPK5; [4]): < 6.00

CC(C)N1CCN(c2ccc(Nc3ncc(-c4cc(F)c(C(N)=O)c(F)c4)n4ncnc34)cc2)CC1 [Compound 26]
MAPKAPK5 IC50 (nM) (MAPKAPK5; [3]): =

C[C@@H]1CN(c2ccc(Nc3ncc(-c4csc(C(N)=O)c4)n4ncnc34)cc2)[C@@H](C)CN1C [Compound 32]
pEC50 ([1]; Homo sapiens, PBMC, 24 h, Table 5, LPS 1 μg/mL): 6.30 to 7.00

NC(=O)c1cc(-c2cnc(Nc3ccc(N4CCN(CC5CC5)CC4)nc3)c3ncnn23)cs1 [Compound 54, 4-{8-[6-(4-[Cyclopropylmethyl]piperazin-1-yl)-pyridin-3-ylamino]-[1,2,4]triazolo[1,5-a]pyrazin-5-yl}thiophene-2-carboxylic acid amide]
pEC50 ([1]; Table 5, LPS 1 μg/mL, 24 hr, read-out: PBMC EC50): < 6.00

O=C(NCc1ccc(O)cc1)c1cccc(Nc2ncc(-c3cn[nH]c3)n3ncnc23)c1 [Compound 131, N-(4-Hydroxybenzyl) 3-[5-(1H-pyrazol-4-yl)-[1,2,4]triazolo[1,5-a]pyrazin-8-ylamino]benzamide]
pEC50 [2]: < 6.00

O=C(N[C@@H]1CCN(Cc2ccccc2)C1)c1ccc(Nc2ncc(-c3cn[nH]c3)n3ncnc23)cc1 [Compound 147]
pIC50 (MAPKAPK5): 6.30 to 7.00
pEC50 [2]: < 6.00

CCN1CCCC1CNC(=O)c1ccc(Nc2ncc(-c3cn[nH]c3)n3ncnc23)cc1 (centres unmarked) [Compound 163]
pIC50 (MAPKAPK5): 6.30 to 7.00

CN(C)Cc1cc(Nc2ncc(-c3ccc4c(c3)CNC4=O)n3ncnc23)ccc1N1CCNCC1 [Compound 175]
pIC50 (MAPKAPK5): 6.30 to 7.00

CC(C)N1CCC(c2ccc(Nc3ncc(-c4cnc5c(c4)CNC5=O)n4ncnc34)cc2)CC1 [Compound 190]
pIC50 (MAPKAPK5): 6.30 to 7.00

O=C(N[C@H]1CCN(Cc2ccccc2)C1)c1ccc(Nc2ncc(-c3cn[nH]c3)n3ncnc23)cc1 [Compound 191]
pEC50 [2]: < 6.00
